Source: patent US12606537B2, “Thiophene derivatives” (priority 2019, dated 2026)
Where two headings read alike, the source gives them in different places.

Columns and labels:
HIF2α-HIF1β complex = test: Cellular mechanistic assay: 786-O HRE-luc2P reporter assay; type: cell-based, human
Procedure: This reporter assay was designed to monitor binding of the HIF2α-HIF1β complex to specific DNA fragment called hypoxia response element (HRE) in physiologically relevant cell line. […] HRE is present in promoters of various genes regulated by hypoxia inducible factors. […] As a result, this reporter assay allows monitoring of HIF2α-HIF1β activity by determining the activity of produced luciferase. Cell culture is performed in RPMI media supplemented with 10% FBS, Sodium Pyruvate, Penicillin/Streptomycin, Glutamine, 200 μg/mL Hygromycin Gold.
The assay was performed in 384 well white, opaque microtiterplate with transparent bottom (Greiner Bio-one, Frickenhausen). […] 50 μl of cell suspension (2000 cells) per well were dispensed in microtiter plates and incubated over night at 37° C. in a 5% CO2 incubator. Compounds were added with Labcyte Echo dispenser (fc 0.3% DMSO, 9 concentrations dilution raw starting at 30 μM). Plates were incubated for 48 h at 37° C. in a 5% CO2 incubator. After this 45 μl of prewarmed ONE-Glo™ EX Reagent were added per well. Plates were placed on an orbital shaker at 1200 rpm for 3 minutes. Plates were sealed and luminescence was measured a Tecan Spark 20M microplate reader (end-point measurement with 0.1 second reading time). Values were normalized to DMSO ctrl and wells without cells (only medium ctrl). Decrease in luminescence directly correlates with inhibition of HIF2α activity. EC50 values and % of effect values were calculated fitting a variable-slope sigmoidal function using Ryvu Therapeutics (formerly Selvita S.A.) DRC application or GraphPad Prism software.

[1] = target: T1, interaction of the PAS B domains of HIF-2α and HIF-1β (Homo sapiens, UniProt Q99814); test: AlphaScreen protein protein interaction assay; type: biochemical
T1 construct: His6Gb1-TEV-GEFKGL-HIF2α (240-350aa)-G; His6 (N); Gb1 (protein G B1 domain) (N); TEV site (N)
T1 sequence (Q99814 240-350): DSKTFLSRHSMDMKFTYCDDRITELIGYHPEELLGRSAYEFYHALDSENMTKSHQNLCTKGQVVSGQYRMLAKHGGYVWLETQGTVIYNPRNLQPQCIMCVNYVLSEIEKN
Procedure: For the assessment of functional disruption of the interaction of the PAS B domains of HIF-2α and HIF-1β an AlphaScreen assay was set-up. The assay was performed in 384 well light gray Perkin Elmer microtiter plates in a total volume of 7 μl. […] The detection of the protein protein interaction was performed by adding AlphaLISA® Anti-FLAG Acceptor beads (fc 20 μg/mL) and AlphaScreen® Nickel Chelate Donor beads (fc 9 μg/mL) (both Perkin Elmer) and the reaction was incubated for 240 min at 23° C. in the dark. If donor and acceptor beads get in close proximity to each other caused by interaction of HIF2alpha PAS B with HIF-1ß PAS B domain it results in a luminescence signal at 615 nm after excitation at 680 nm. The PPI disruption activity of a compound was calculated directly from the loss in Alphascreen signal. The AlphaScreen signal was measured with an Envision multimode reader (Perkin Elmer LAS Germany GmbH). The control value used was the inhibitor-free reaction. The pharmacological zero value used was determined in the absence of HIF-1ß. The inhibitory values (IC50) were calculated using Assay analyser from GeneData.

HIF2a (240-350)-G = target: T2, HIF2a (240-350)-G (Homo sapiens, UniProt Q99814); test: ITC (isothermal titration calorimetry) binding
T2 construct: The protein, HIF2a (240-350)-G, was prepared by recombinant overexpression; made in house
T2 sequence (Q99814 240-350): as above
Procedure: ITC measurements were performed with a VP-ITC microcalorimeter from MicroCal/Malvern (UK). For all titration experiments the protein and the respective compounds were formulated in 30 mM HEPES buffer pH 7.5, 150 mM NaCl and 5 mM ß-mercaptoethanol. The protein, HIF2a (240-350)-G, was prepared by recombinant overexpression and multistep chromatography purification. Compounds were used from concentrated DMSO stock solutions. The final protein concentration in the injection syringe was 100 μM. Ligand stock solutions of 10 mM in DMSO were diluted to 10 μM concentrations with buffer and loaded into the sample cell. All buffers were adjusted to a final concentration of 1% (v/v) DMSO. Both, the titrate and titrant solutions were degassed prior to loading the calorimeter cell and injection syringe. […] The integrated heat data were fit with a one-site binding model to determine the apparent values for affinity, enthalpy and stoichiometry of binding.

[2] = Homo sapiens, 786-0, 48 h, read-out: HRE-luc2P reporter assay IC50, 786-O HRE-luc2P cells, 48 h incubation, luciferase luminescence
[3] = read-out: HRE-luc2P reporter assay IC50, 786-O HRE-luc2P cells, 48 h incubation, luciferase luminescence

CS(=O)(=O)c1sc(Oc2ccc(F)c(F)c2)c2c1C(O)C(F)(F)C2 (racemic) [Example 24a, 1-(3,4-difluorophenoxy)-5,5-difluoro-3-methanesulfonyl-4H,5H,6H-cyclopenta[c]thiophen-4-ol]
IC50 (HIF2α-HIF1β complex; [2]): > 1 µM | IC50 [1]: > 1 µM | Kd (HIF2a (240-350)-G): > 1 µM

CCC(Oc1sc(S(C)(=O)=O)c2c1CC(F)(F)[C@H]2O)C(F)(F)F (single isomer, unassigned) [Example 9a]
IC50 (HIF2α-HIF1β complex; [2]): > 1 µM | IC50 [1]: < 0.05 µM | Kd (HIF2a (240-350)-G): 0.1 to 1 µM

CC(Oc1sc(S(C)(=O)=O)c2c1CC(F)(F)[C@H]2O)C(F)F (single isomer, unassigned) [Example 10a]
IC50 (HIF2α-HIF1β complex; [3]): > 1 µM | IC50 [1]: < 0.05 µM

CC(Oc1sc(S(C)(=O)=O)c2c1CC(F)(F)[C@H]2O)C(F)F (single isomer, unassigned) [Example 14a]
IC50 (HIF2α-HIF1β complex; [3]): 0.05 to 1 µM | IC50 ([1]; read-out: AlphaScreen IC50, disruption of HIF-2α / HIF-1β (ARNT) PAS B interaction, recombinant proteins 143 nM each): < 0.05 µM

COC1(COc2sc(S(C)(=O)=O)c3c2CC(F)(F)[C@H]3O)CCC1 [Example 16a, (4S)-5,5-difluoro-3-methanesulfonyl-1-[(1-methoxycyclobutyl)methoxy]-4H,5H,6H-cyclopenta[c]thiophen-4-ol]
IC50 (HIF2α-HIF1β complex; [2]): > 1 µM | IC50 [1]: < 0.05 µM | Kd (HIF2a (240-350)-G): 0.1 to 1 µM

CS(=O)(=O)c1sc(OCC(F)(F)F)c2c1[C@H](O)[C@@H](F)C2 [Example 17a, (4S,5S)-5-fluoro-3-methanesulfonyl-1-(2,2,2-trifluoroethoxy)-4H,5H,6H-cyclopenta[c]thiophen-4-ol]
IC50 (HIF2α-HIF1β complex; [2]): 0.05 to 1 µM | IC50 [1]: < 0.05 µM

CS(=O)(=O)c1sc(OC2CCOCC2)c2c1[C@H](O)C(F)(F)C2 [Example 22a, (4S)-5,5-difluoro-3-methanesulfonyl-1-(oxan-4-yloxy)-4H,5H,6H-cyclopenta[c]thiophen-4-ol]
IC50 [1]: < 0.05 µM | Kd (HIF2a (240-350)-G): 0.1 to 1 µM

CS(=O)(=O)c1sc(OCCOC(F)(F)F)c2c1[C@H](O)C(F)(F)C2 [Example 23a, (4S)-5,5-difluoro-3-methanesulfonyl-1-[2-(trifluoromethoxy)ethoxy]-4H,5H,6H-cyclopenta[c]thiophen-4-ol]
IC50 (HIF2α-HIF1β complex; [2]): > 1 µM | IC50 [1]: < 0.05 µM

CS(=O)(=O)c1sc(Oc2ccc(F)cc2)c2c1[C@H](O)C(F)(F)C2 [Example 29a, (4S)-5,5-difluoro-1-(4-fluorophenoxy)-3-methanesulfonyl-4H,5H,6H-cyclopenta[c]thiophen-4-ol]
IC50 (HIF2α-HIF1β complex; [2]): > 1 µM | IC50 [1]: > 1 µM | Kd (HIF2a (240-350)-G): > 1 µM

CS(=O)(=O)c1sc(Oc2cc(F)cc(Cl)c2)c2c1[C@H](O)C(F)(F)C2 [Example 30a, (4S)-1-(3-chloro-5-fluorophenoxy)-5,5-difluoro-3-methanesulfonyl-4H,5H,6H-cyclopenta[c]thiophen-4-ol]
IC50 (HIF2α-HIF1β complex; [2]): > 1 µM | IC50 [1]: > 1 µM | Kd (HIF2a (240-350)-G): > 1 µM

CS(=O)(=O)c1sc(Oc2cccc(C#N)c2)c2c1[C@H](O)C(F)(F)C2 [Example 31a, 3-{[(4S)-5,5-difluoro-4-hydroxy-3-methanesulfonyl-4H,5H,6H-cyclopenta[c]thiophen-1-yl]oxy}benzonitrile]
IC50 (HIF2α-HIF1β complex; [2]): > 1 µM | IC50 [1]: > 1 µM | Kd (HIF2a (240-350)-G): > 1 µM

CCOc1sc(S(C)(=O)=O)c2c1CC(F)(F)[C@H]2O [Example 32a, (4S)-1-ethoxy-5,5-difluoro-3-methanesulfonyl-4H,5H,6H-cyclopenta[c]thiophen-4-ol]
IC50 (HIF2α-HIF1β complex; [2]): > 1 µM | IC50 [1]: > 1 µM

CS(=O)(=O)c1sc(Oc2ccc(F)c(F)c2)c2c1[C@H](O)C(F)(F)C2 [Example 34a, (4S)-1-(3,4-difluorophenoxy)-5,5-difluoro-3-methanesulfonyl-4H,5H,6H-cyclopenta[c]thiophen-4-ol]
IC50 (HIF2α-HIF1β complex; [2]): > 1 µM | IC50 [1]: 0.05 to 1 µM
